According to patent USRE39096E1, “Treatment of skin disorders” (Hadasit Medical Research Services and Development Company …, priority 1997, dated 2006):
“And” between values parts separate entries of the source, which are not always exact repeats. Equal values may be shown once. Read-outs that look alike come from different tables or passages of the source.

What was measured:
[1] = test system: bovine corneal endothelial cells; assay: Viability and morphology of confluent corneal endothelial cell monolayer; assay type: cell-based; conditions: growth arrested monolayer
From the text: (§1) As noted above, skin cell hyperproliferation is enabled by the deposition of ECM components. The following examples illustrate the ability of Halofuginone to inhibit such deposition of ECM components, further supporting the use of Halofuginone as a treatment for psoriasis. These examples illustrate the unexpected finding that Halofuginone completely abolishes deposition of all ECM components, and not just collagen, thereby preventing cell proliferation which is enabled by the formation of ECM. Cultures of bovine corneal endothelial cells were established from steer eyes and maintained as previously described [D. Gospodarowicz, et al., Exp. Eye Res., No. 25, pp. 75-99 (1977)]. Cells were cultured at 37° C. in 10% CO2 humidified incubators and the experiments were performed with early (3-8) cell passages.
(§2) For preparation of sulfate-labelled ECM (extra-cellular matrix), corneal endothelial cells were seeded into Swell plates at a confluent density forming, within 4-6 h, a contact inhibited cell monolayer composed of closely apposed, and growth arrested cells. […] To determine the total amount of sulfate labeled material, the ECM was digested with trypsin (25 μg/ml 24 h, 37° C.) and the solubilized material counted in a β-counter.

rats = assay: Post-surgical abdominal adhesion formation in rats, Halofuginone in diet as pretreatment; assay type: in vivo, rat
Description: The experimental method was as follows. Halofuginone was administered in the diet of two groups of rats at a concentration of 5 mg/kg dry feed for 4 days before surgery, as a pretreatment. Two other groups of rats were fed a normal diet and served as control groups. One of the groups of rats fed Halofuginone and one control group then underwent surgery, which was performed as follows. First, the abdomen of the rats was shaved and prepared with iodine and alcohol. The abdominal cavity was entered through a mid-line incision. The small intestine was scraped from the duodenum down to from about 9 to about 10 cm from the cecum, until capillary bleeding occurred. To avoid drying, Hartman's solution at about 37 C. was occasionally dripped on the intestine. After replacement of the intestine into the abdominal cavity, the abdomen was closed in two layers with continuous 00 chromic catgut suture.
In those rats receiving the drug, Halofuginone treatment was continued for 21 days following surgery. At the end of 21 days, the rats were weighed and the number and severity of adhesions were determined according to a double-blind procedure, in which adhesions were classified according to the following grading: 0=no adhesions; I=a thin, filmy, easily separated adhesion; II=several thin adhesions; III=a thick, broad adhesion and IV=several thick adhesions. Clearly, 0 is the least severe and IV is the most severe grade.

keloid-derived cells = assay: Collagen synthesis in keloid-derived cells ([3H]proline incorporation, collagenase digestion); assay type: cell-based, human; conditions: 24 hours incubation, FIG. 2
Description: A keloid, which had arisen in response to the piercing of the ear for insertion of an earring, was removed from the ear lobe of a person. The keloid tissue was sectioned so that histological studies could be performed. Briefly, the tissue samples were collected into phosphate-buffered saline (PBS) and fixed overnight in 4% paraformaldehyde in PBS at 4° C. Serial 5 um sections were prepared after the samples had been dehydrated in graded ethanol solutions, cleared in chloroform and embedded in Paraplast. Differential staining of collagenous and non-collagenous proteins was performed with 0.1% Sirius red and 0.1% fast green as a counter-stain in picric acid. This procedure stains collagen red [Gascon-Barre, M., et al., J. Histochem. Cytochem., Vol 37, p. 377-381, 1989].
The keloid was removed as described in Example 1 above. The keloid-derived cells were incubated with and without Halofuginone for 24 hours in 0.5 ml glutamine-free DMEM containing 5% FCS (Fetal Calf Serum), ascorbic acid (50 μg/ml), B-aminopropionitrile (50 μg/ml) and 2 μCi of [^3H]proline. At the end of incubation, the medium was decanted and the cells were incubated with or without collagenase for 18 hours, followed by precipitation of proteins by the addition of TCA (trichloroacetic acid). […]

[2] = test system: bovine corneal endothelial cells; assay: Sulfate incorporation into ECM of cultured endothelial cells; assay type: cell-based; conditions: FIG. 3
From the text: as §1, §2

[3] = test system: bovine corneal endothelial cells; assay: Incorporation of sulfate, proline, lysine and glycine into ECM of bovine corneal endothelial cells; assay type: cell-based; conditions: eight days after seeding
Description: Corneal endothelial cells were seeded at a confluent density and grown as described in Example 3 above. The cells were cultured with or without Halofuginone in the presence of either Na2^35SO4 (FIG. 4A), ^3H-proline (FIG. 4B), ^14C-lysine (FIG. 4C) or ^14C-glycine (FIG. 4D). Eight days after seeding, the cell layer was dissolved substantially as described in Example 3 above. The underlying ECM was then either trypsinized to determine the effect of Halofuginone on incorporation of labeled material into total protein, substantially as described in Example 3 above, or subjected to sequential digestions with collagenase and trypsin to evaluate the effect of Halofuginone on both collagenase-digestible proteins (CDP) and non-collagenase digestible proteins (NCDP).

Rat mesengial cells = assay: Sulfate and glycine incorporation into rat mesengial cell ECM; assay type: cell-based; conditions: for inhibition at 0.05 µg/mL / inhibition at 0.2 µg/mL: Rattus norvegicus; for inhibition at 0.05 µg/mL: 50 ng/ml Halofuginone; for inhibition at 0.2 µg/mL: 200 ng/ml Halofuginone
Description: Rat […] grown to confluency, 24 hours after seeding. The cells were then cultured with or without Halofuginone in the presence of either Na2^35SO4 (FIGS. 5A and 5B) or ^14C-glycine (FIGS. 5C and 5D). Eight days after seeding, the cell layer was dissolved to expose the underlying ECM, washed and digested with collagenase to determine the effect of Halofuginone on CDP proteins, as shown in FIGS. 5A and 5C. The remaining material was digested with trypsin and subjected to β-scintillation counting to determine the effect of Halofuginone on NCDP proteins, as shown in FIGS 5B and 5D.

SMILES: O=C(CC1NCCCC1O)Cn1cnc2cc(Br)c(Cl)cc2c1=O (centres unmarked) [Halofuginone]
- concentration up to which cells remained viable and retained normal monolayer configuration and morphological appearance [1]: ≤ 2 μg/ml
- Adhesion Score (rats; individual rats, Group Number 2 (taken as surgery + Halofuginone 5 mg/kg dry feed, 4 days before and 21 days after surgery)): 0-1 (3×) and 0 (3×) and 1 (2×) and 1-2 (2×)
- adhesions in rats without surgical intervention (rats; no surgery, Halofuginone in diet): None of the rats without surgical intervention
- post-surgical adhesion formation (rats; rats with surgery, Halofuginone in diet 5 mg/kg dry feed): able to inhibit post-surgical adhesion formation
- production of collagen (collagenase-digestible [3H]proline-labelled proteins) (keloid-derived cells): inhibited the production of collagen
- production of non-collagenase digestible proteins (keloid-derived cells): not of non-collagenase digestible proteins
- inhibition of sulfate incorporation into ECM ([2]; 1 μg/ml Halofuginone): almost complete inhibition
- inhibition at 0.2 µg/mL ([2]; Bos taurus, Endothelial cell, 0.2 μg/ml Halofuginone): 50%
- incorporation of proline into ECM ([3]; 3H-proline, both CDP and NCDP, FIG. 4B): inhibited
- incorporation of glycine into ECM ([3]; 14C-glycine, both CDP and NCDP, FIG. 4D): inhibited
- incorporation of lysine into ECM ([3]; 14C-lysine, both CDP and NCDP, FIG. 4C): inhibited
- incorporation of sulfate into ECM ([3]; Na2 35SO4, both CDP and NCDP, FIG. 4A): inhibited
- microscopic examination of denuded culture dishes (ECM layer) (Rat mesengial cells; ECM produced in the presence of Halofuginone): thin or non-existant layer of ECM
- inhibition at 0.05 µg/mL (Rat mesengial cells; collagenase-digestible proteins, read-out: inhibition of glycine incorporation, CDP proteins): ~80%
- inhibition at 0.05 µg/mL (Rat mesengial cells; non-collagenase digestible proteins, read-out: inhibition of glycine incorporation, NCDP proteins): ~80%
- inhibition at 0.2 µg/mL (Rat mesengial cells; collagenase-digestible proteins, read-out: inhibition of sulfate incorporation, CDP proteins): ~30%
- inhibition at 0.2 µg/mL (Rat mesengial cells; non-collagenase digestible proteins, read-out: inhibition of sulfate incorporation, NCDP proteins): ~70%
